Results: PubChem BioAssay AID248 (DTP/NCI, 2004)
Toxic doses and inconclusive results are not listed. Rule as the data show it: active = T/C of 150% or more; inactive = T/C below 125%.

System: L1210 leukemia ip in BDF1 mice, survival T/C
Assay: NCI In Vivo Anticancer Drug Screen. Data for tumor model L1210 Leukemia (intraperitoneal) in B6D2F1 (BDF1) mice
Conditions: endpoint: mean survival time, higher = longer survival
Method in brief: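 Transplanted-tumor mice were given test agent; controls received vehicle only. Survival readings from the two groups were divided (treated over control).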

[1] = dose: 100.0 mg/kg/injection, schedule: Q04DX003 (ip), vehicle: saline with Tween-80
[2] = dose: 200.0 mg/kg/injection, schedule: Q04DX003 (ip), vehicle: saline with Tween-80
[3] = dose: 400.0 mg/kg/injection, schedule: Q04DX003 (ip), vehicle: saline with Tween-80
[4] = dose: 100.0 mg/kg/injection, schedule: Q01DX009 (ip), vehicle: saline with Tween-80
[5] = dose: 200.0 mg/kg/injection, schedule: Q01DX009 (ip), vehicle: saline with Tween-80
[6] = dose: 400.0 mg/kg/injection, schedule: Q01DX009 (ip), vehicle: saline with Tween-80
[7] = dose: 100.0 mg/kg/injection, schedule: Q01DX001 (ip), vehicle: saline
[8] = dose: 200.0 mg/kg/injection, schedule: Q01DX001 (ip), vehicle: saline
[9] = dose: 400.0 mg/kg/injection, schedule: Q01DX001 (ip), vehicle: saline
[10] = dose: 100.0 mg/kg/injection, schedule: Q01DX009 (ip), vehicle: saline
[11] = dose: 200.0 mg/kg/injection, schedule: Q01DX009 (ip), vehicle: saline
[12] = dose: 50.0 mg/kg/injection, schedule: Q01DX009 (ip), vehicle: saline with Tween-80
[13] = dose: 100.0 mg/kg/injection, schedule: Q01DX009 (ip), vehicle: Klucel (hydroxypropylcellulose) (HPC)
[14] = dose: 200.0 mg/kg/injection, schedule: Q01DX009 (ip), vehicle: Klucel (hydroxypropylcellulose) (HPC)
[15] = dose: 50.0 mg/kg/injection, schedule: Q01DX009 (ip), vehicle: saline
[16] = dose: 100.0 mg/kg/injection, schedule: Q04DX003 (ip), vehicle: Klucel (hydroxypropylcellulose) (HPC)
[17] = dose: 200.0 mg/kg/injection, schedule: Q04DX003 (ip), vehicle: Klucel (hydroxypropylcellulose) (HPC)
[18] = dose: 400.0 mg/kg/injection, schedule: Q04DX003 (ip), vehicle: Klucel (hydroxypropylcellulose) (HPC)

Measured: T/C

c1ccc2[nH]c(-c3cscn3)nc2c1
inactive: dose: 75.0 mg/kg/injection, schedule: Q04DX003 (ip), vehicle: saline 103 % of control | dose: 150.0 mg/kg/injection, schedule: Q04DX003 (ip), vehicle: saline 103 % of control | dose: 300.0 mg/kg/injection, schedule: Q04DX003 (ip), vehicle: saline 106 % of control

CC(C)CC(=O)Nc1ccc(S(=O)(=O)NCC(C)(C)O)cc1
inactive: [1] 98 % of control | [2] 98 % of control | [3] 95 % of control

CCOC(=O)c1cc(Cl)ccc1O
inactive: dose: 100.0 mg/kg/injection, schedule: Q04DX002 (ip), vehicle: saline with Tween-80 89 % of control | dose: 200.0 mg/kg/injection, schedule: Q04DX002 (ip), vehicle: saline with Tween-80 92 % of control | dose: 400.0 mg/kg/injection, schedule: Q04DX002 (ip), vehicle: saline with Tween-80 92 % of control

COC1(C(=O)OOC(C)(C)C)CC1(c1ccccc1)c1ccccc1 (configuration not stated)
inactive: dose: 50.0 mg/kg/injection, schedule: Q01DX001 (ip), vehicle: Klucel (hydroxypropylcellulose) (HPC) 107 % of control | dose: 100.0 mg/kg/injection, schedule: Q01DX001 (ip), vehicle: Klucel (hydroxypropylcellulose) (HPC) 102 % of control | dose: 200.0 mg/kg/injection, schedule: Q01DX001 (ip), vehicle: Klucel (hydroxypropylcellulose) (HPC) 100 % of control

CCOC(=O)CCCCSCCCCC(=O)OCC
inactive: [4] 91 % of control | [5] 101 % of control | [6] 102 % of control

CC1CCCCC1NC(=O)NCCOC(=O)OCCNC(=O)NC1CCCCC1C (configuration not stated)
inactive: [4] 95 % of control | [1] 100 % of control | [5] 95 % of control | [2] 91 % of control | [6] 90 % of control | [3] 86 % of control

CCCSc1ncnc2c1nc(C)n2CO
inactive: [7] 114 % of control | [8] 114 % of control | [9] 121 % of control

Cc1cc(C)c2c(C#N)cn(-c3cccc([N+](=O)[O-])c3)c2n1
inactive: dose: 50.0 mg/kg/injection, schedule: Q01DX001 (ip), vehicle: saline with Tween-80 98 % of control | dose: 100.0 mg/kg/injection, schedule: Q01DX001 (ip), vehicle: saline with Tween-80 103 % of control | dose: 200.0 mg/kg/injection, schedule: Q01DX001 (ip), vehicle: saline with Tween-80 95 % of control | [8] 87 % of control

CCCCCCOC(=O)Nc1ccc(S(=O)(=O)N(CCC)CCC)cc1
inactive: [7] 97 % of control | [8] 95 % of control | [9] 97 % of control

C/C(CC(=O)O)=C(\C)C(=O)O
inactive: dose: 100.0 mg/kg/injection, schedule: Q01DX009 (ip), vehicle: water 95 % of control | dose: 100.0 mg/kg/injection, schedule: Q04DX003 (ip), vehicle: water 96 % of control | dose: 200.0 mg/kg/injection, schedule: Q01DX009 (ip), vehicle: water 91 % of control | dose: 200.0 mg/kg/injection, schedule: Q04DX003 (ip), vehicle: water 102 % of control | dose: 400.0 mg/kg/injection, schedule: Q04DX003 (ip), vehicle: water 104 % of control

N#CC1C2C=CC(CC2)C1C#N (configuration not stated) (tested in a mixture with another compound)
inactive: dose: 0.25 mg/kg/injection, schedule: Q01DX Z (ip), vehicle: carboxymethylcellulose (CMC) 95 % of control | dose: 0.5 mg/kg/injection, schedule: Q01DX Z (ip), vehicle: carboxymethylcellulose (CMC) 93 % of control | dose: 1.0 mg/kg/injection, schedule: Q01DX Z (ip), vehicle: carboxymethylcellulose (CMC) 95 % of control | dose: 2.0 mg/kg/injection, schedule: Q01DX Z (ip), vehicle: carboxymethylcellulose (CMC) 93 % of control | dose: 5.0 mg/kg/injection, schedule: Q01DX001 (ip), vehicle: saline 98 % of control | dose: 10.0 mg/kg/injection, schedule: Q01DX001 (ip), vehicle: saline 95 % of control

CCCCCCCC(=O)Nc1cc(C(F)(F)F)ccc1Cl
inactive: [1] 92 % of control | [2] 98 % of control | [3] 87 % of control

CC(CC=O)CCCC(C)(C)O (configuration not stated)
inactive: [10] 102 % of control | [11] 102 % of control | dose: 400.0 mg/kg/injection, schedule: Q01DX009 (ip), vehicle: saline 93 % of control

COc1cc2c(cc1O)C(=O)CCC2
inactive: [12] 107 % of control | [4] 96 % of control | [5] 93 % of control

O=C(N=C=S)c1ccccc1
inactive: dose: 100.0 mg/kg/injection, schedule: Q01DX009 (ip), vehicle: other 95 % of control | dose: 200.0 mg/kg/injection, schedule: Q01DX009 (ip), vehicle: other 87 % of control | dose: 400.0 mg/kg/injection, schedule: Q01DX009 (ip), vehicle: other 89 % of control

CN(C)CCC(c1ccccc1)(c1ccccc1)c1ccccc1
inactive: dose: 50.0 mg/kg/injection, schedule: Q01DX001 (ip), vehicle: carboxymethylcellulose (CMC) 92 % of control | dose: 100.0 mg/kg/injection, schedule: Q01DX001 (ip), vehicle: carboxymethylcellulose (CMC) 92 % of control | dose: 200.0 mg/kg/injection, schedule: Q01DX001 (ip), vehicle: carboxymethylcellulose (CMC) 94 % of control

NS(=O)(=O)c1ccc(S(=O)(=O)NC2CCCCC2)cc1
inactive: [13] 101 % of control | [14] 101 % of control

O=[N+]([O-])c1cccc([I+]c2ccccc2)c1
inactive: dose: 50.0 mg/kg/injection, schedule: Q01DX001 (ip), vehicle: saline 91 % of control | [7] 95 % of control | [8] 101 % of control

CC1(C)C(=O)N(Br)C(=O)N1Br
inactive: dose: 12.5 mg/kg/injection, schedule: Q04DX003 (ip), vehicle: Klucel (hydroxypropylcellulose) (HPC) 92 % of control | dose: 25.0 mg/kg/injection, schedule: Q04DX003 (ip), vehicle: Klucel (hydroxypropylcellulose) (HPC) 103 % of control | dose: 50.0 mg/kg/injection, schedule: Q04DX003 (ip), vehicle: Klucel (hydroxypropylcellulose) (HPC) 103 % of control

NC(CSCc1ccccc1)CSCc1ccccc1
inactive: dose: 25.0 mg/kg/injection, schedule: Q01DX009 (ip), vehicle: saline 101 % of control | [15] 100 % of control | [10] 105 % of control

c1cc(C2CO2)ccc1Oc1ccc(C2CO2)cc1 (configuration not stated)
inactive: dose: 1.0 mg/kg/injection, schedule: Q01DX Z (ip), vehicle: methylcellulose (MC) 96 % of control | dose: 3.3 mg/kg/injection, schedule: Q01DX Z (ip), vehicle: methylcellulose (MC) 98 % of control | dose: 10.0 mg/kg/injection, schedule: Q01DX Z (ip), vehicle: methylcellulose (MC) 104 % of control | dose: 33.0 mg/kg/injection, schedule: Q01DX Z (ip), vehicle: methylcellulose (MC) 98 % of control | dose: 100.0 mg/kg/injection, schedule: Q01DX Z (ip), vehicle: methylcellulose (MC) 86 % of control

O=C1CCCCCC1c1ccccc1 (configuration not stated)
inactive: [1] 98 % of control | [2] 96 % of control | [3] 106 % of control

CCCC(=O)c1ccc(OC)c(OC)c1
inactive: [13] 101 % of control | [14] 95 % of control

CC(=O)C(CCS(C)(=O)=O)c1ccccc1 (configuration not stated)
inactive: [16] 103 % of control | [17] 97 % of control | [18] 105 % of control

O=C1NCCS1
inactive: [15] 107 % of control | [4] 107 % of control | [10] 92 % of control | dose: 100.0 mg/kg/injection, schedule: Q04DX003 (ip), vehicle: saline sonified 102 % of control | [5] 107 % of control | [11] 115 % of control | dose: 200.0 mg/kg/injection, schedule: Q04DX003 (ip), vehicle: saline sonified 100 % of control | [6] 96 % of control | dose: 400.0 mg/kg/injection, schedule: Q04DX003 (ip), vehicle: saline sonified 106 % of control

CCCCNc1nc(SC)nc2nc[nH]c12
inactive: [16] 95 % of control | [17] 96 % of control | [18] 91 % of control

CCC1(c2ccccc2)C(=O)N(Cl)C(=O)N(Cl)C1=O
inactive: dose: 25.0 mg/kg/injection, schedule: Q01DX009 (ip), vehicle: saline with Tween-80 98 % of control | [12] 98 % of control | [4] 93 % of control

Cc1[nH]c(=O)[nH]c(=O)c1[N+](=O)[O-]
inactive: [13] 94 % of control | [16] 102 % of control | [14] 101 % of control | [17] 104 % of control | dose: 400.0 mg/kg/injection, schedule: Q01DX009 (ip), vehicle: Klucel (hydroxypropylcellulose) (HPC) 87 % of control | [18] 102 % of control
